# Measured values from patent US10016382B2, “Method for decreasing skeletal muscle damage and/or oxidative stress in mammals” (LONZA INC., priority 2014, dated 2018).
# Values joined by “and” are separate entries in the source; they are usually repeats but may differ in a detail not shown here. Equal entries are not always repeated. Marks after values point to notes of the source that are not given here.
# Columns and labels:
# Creatine kinase (CK) = assay: Serum creatine kinase (muscle damage biomarker), Example 1; type: in vivo, dog; conditions: for Creatine Kinase, serum, Mean / Change in Creatine Kinase Activity, post-run minus pre-run: Ex.1, 250 mg/d; for Change in Creatine Kinase Activity, post-run minus pre-run: following 15 mile long run at 13 wk, mean ± SEM
# Description: Blood Analysis: Serum samples were taken at three different times from each dog during the 90 day period. The blood samples were collected as follows: 1.) just prior to scanning each dog for body composition at the beginning of the study, 2.) prior to the long run on the 13th week, and 3.) following the long run on the 13th week. The serum samples were analyzed for Phosphocreatine Kinase and Canine Myoglobin to determine the amount of muscle protein leakage that occurred following the long run and TBARS and Total Antioxidant Capacity (TAC) were determined to evaluate the antioxidant status of each of the test dogs during the exercise program. The final blood sample was taken 24 hr after the long run to obtain maximum protein leakage based on previous similar types of exercise research with human athletes. Biomarkers and Assay Methods: Blood was drawn from each dog using a serum separator tube at three different times during the 90 day period: 1.) just prior to scanning each dog for body composition at the beginning of the study, 2.) prior to the long run on the 13th week, and 3.) following the long run on the 13th week. The final blood sample was taken 24 hr after the long run to obtain maximum protein leakage based on previous similar types of exercise research with human athletes. Each time after the blood was drawn it was allowed to clot before being centrifuged for 15 min at 2000 g at 4° C. Serum was aliquoted into 1.5 mL microcentrifuge tubes and stored at −80° C. until assays were ran following the end of the study. Creatine kinase (CK) and canine myoglobin were measured to determine the amount of muscle protein leakage that occurred following the long run. Thiobarbituric acid reactive substances (TBARS) and total antioxidant capacity (TAC) were measured to evaluate the antioxidant status of each of the test dogs during the exercise program. Serum samples were analyzed for total antioxidant capacity (TAC) and thiobarbituric acid reactive substances (TBARS) using commercially available colorimetric kits supplied by Cayman Chemical Company (Ann Arbor, Mich.) per manufacturer instructions. Serum canine myoglobin levels were determined using a commercially available ELISA supplied by Innovate Research (Novi, Mich.) per manufacturer instructions. Creatine kinase activity was determined colorimetrically using a commercially available kit supplied by BioVision (San Francisco, Calif.).
# skeletal muscle = assay: Fractional breakdown rate (FBR) of skeletal muscle, 3-methylhistidine, Example 2 part two; type: in vivo, dog; conditions: for FBR: run, muscle samples
# From the text: Twenty-six Labrador Retrievers ranging in age from 1.5 to 4.5 years were chosen from part one of the study and were fed for an additional 60 days following the termination of part one of the study. Test dogs remained in their previous treatment groups. Measurements on Actical movements/kg BW/mile endurance runs obtained during part one of the study were utilized to ensure that both the control and the L-carnitine groups were equal for performance potential. The lean body mass of the test dogs was determined by scanning with the DEXA as an additional measure for ensuring equal groups. Twelve dogs (6 males and 6 females) were assigned to each treatment group. Two additional dogs (1 male and 1 female) were fed the low carnitine basal diet of the control group and were used as controls that were not enriched with isotopes during the study; these two control dogs were used to measure the natural amount of 15N Phe in the sample. During the 60 day trial, the test dogs were fed low-carnitine basal diets with or without L-carnitine supplementation in a manner analogous to that of part one of the study. For three days prior to the final muscle biopsy and blood collection, all test dogs were feed an “all vegetarian plus egg” diet from Purina LabDiet that had nutrient specifications that were equivalent to that of the low carnitine basal diet. […] At the end of the 60 day training program, 24 of the dogs (12 resting and 12 running) were infused with a bolus dose of 15N Phe. […] Forty-five minutes after infusion, a 5 mm Bergstrom muscle biopsy needle was used to take a biopsy of the biceps femoris muscle. The muscle samples were quickly frozen in liquid nitrogen and placed in a −80° C. freezer for later analysis]. Twenty-four hours after the resting dogs were infused with 15N Phe, the remaining 12 dogs (6 non-carnitine; 3 male and 3 female and 6 L-carnitine; 3 male and 3 female) were run for a 15 mile endurance run. Following a 30 minute period of measured physiological recovery (heart rate and body temperature), test dogs that completed the 15 mile run were infused with a 2% 15N Phe solution as described above; muscle biopsies were taken 45 minutes after infusion. Blood samples were taken from the carotid artery for each test dog and analyzed for 3 MH. Three days prior to taking the blood samples, the dogs were fed the “all vegetable plus egg” non-meat diet from Purina LabDiet to ensure that the 3 MH found in the blood represented the skeletal muscle protein breakdown. To process the samples, the acid-soluble fraction containing free amino acids was removed by addition of 2% (w/v) perchloric acid. After homogenization, samples were centrifuged at 3,000×g, and the supernatant, containing free amino acids, was removed. The protein precipitate was washed three times with 2% perchloric acid before being hydrolyzed in 6N HCL. The supernatant and precipitate, respectively, were then run through an ion-exchange column packed with Dowex 50WX8-200. Phenylalanine and 3-methylhistidine (3-MH) were eluted with 2 mL of 4N NH4OH and 1 mL of nanopure H2O into a new vial and then dried under vacuum. The tert-butyldimethylsilyl (tBDMS) derivative was formed by adding 800 μL of C2CH3CN-MTBSTFA (1:1) and incubating at 110° C. for 60 minutes. The same mass spectrometer was used to determine 3-MH. […] The 238 m/z fragment of 3-MH was monitored. The muscle samples were analyzed for the fractional breakdown rate (FBR). FBR was calculated as kd=3-MH daily excretion/3-MH muscle pool×100. […]
smiles,measurement,setting,value
C[N+](C)(C)C[C@H](O)CC(=O)[O-] [L-carnitine],Creatine Kinase Least Sq Mean,Creatine kinase (CK); Baseline,24.88 mU/mL
same,Creatine Kinase Least Sq Mean,"Creatine kinase (CK); Baseline, F",35.85 mU/mL
same,Creatine Kinase Least Sq Mean,"Creatine kinase (CK); Baseline, M",13.91 mU/mL
same,"Creatine Kinase, serum, Mean","Creatine kinase (CK); Baseline, both sexes",22.9 mU · mL
same,"Creatine Kinase, serum, Mean","Creatine kinase (CK); Baseline, females",35.8 mU · mL
same,"Creatine Kinase, serum, Mean","Creatine kinase (CK); Baseline, males",13.9 mU · mL
same,"Creatine Kinase, serum, Mean","Creatine kinase (CK); Post-run (24 hr after 15 mile run), both sexes",16.1 mU · mL
same,"Creatine Kinase, serum, Mean","Creatine kinase (CK); Post-run, females",19.9 mU · mL
same,"Creatine Kinase, serum, Mean","Creatine kinase (CK); Post-run, males",12.2 mU · mL
same,"Creatine Kinase, serum, Mean","Creatine kinase (CK); Pre-run (24 hr before 15 mile run), both sexes",7.0 mU · mL
same,"Creatine Kinase, serum, Mean","Creatine kinase (CK); Pre-run, females",6.9 mU · mL
same,"Creatine Kinase, serum, Mean","Creatine kinase (CK); Pre-run, males",7.0 mU · mL
same,"Change in Creatine Kinase Activity, post-run minus pre-run","Creatine kinase (CK); both sexes, text: units",9.3 and 9.3 ± 1.86 n = 18
same,"Change in Creatine Kinase Activity, post-run minus pre-run",Creatine kinase (CK); females,13.06 ± 2.06 n = 9
same,"Change in Creatine Kinase Activity, post-run minus pre-run",Creatine kinase (CK); males,5.54 and 5.54 ± 2.63 n = 9
same,Creatine Kinase Least Sq Mean,Creatine kinase (CK); Post-run,16.08 mU/mL
same,Creatine Kinase Least Sq Mean,"Creatine kinase (CK); Post-run, F",19.94 mU/mL
same,Creatine Kinase Least Sq Mean,"Creatine kinase (CK); Post-run, M",12.21 mU/mL
same,Creatine Kinase Least Sq Mean,Creatine kinase (CK); Pre-run,6.96 mU/mL
same,Creatine Kinase Least Sq Mean,"Creatine kinase (CK); Pre-run, F",6.888 mU/mL
same,Creatine Kinase Least Sq Mean,"Creatine kinase (CK); Pre-run, M",7.032 mU/mL
same,Creatine Kinase Least Sq Mean,"Creatine kinase (CK); Treatment * Sex, F",35.85 mU/mL
same,Creatine Kinase Least Sq Mean,"Creatine kinase (CK); Treatment * Sex, M",13.91 mU/mL
same,Creatine Kinase Least Sq Mean,"Creatine kinase (CK); Treatment level, all dogs",24.88 mU/mL
same,"Creatine Kinase, mixed model Estimate, term Time[Post-run-Pre-run] * Treatment[L-carnitine]","Creatine kinase (CK); serum, model term",−2.544 mU/mL
same,"Creatine Kinase, mixed model Estimate, term Time[Post-run-Pre-run] * Treatment[L-carnitine] * Sex[F]","Creatine kinase (CK); serum, model term",1.335 mU/mL
same,"Creatine Kinase, mixed model Estimate, term Time[Pre-run-Baseline] * Treatment[L-carnitine]","Creatine kinase (CK); serum, model term",−3.029 mU/mL
same,"Creatine Kinase, mixed model Estimate, term Time[Pre-run-Baseline] * Treatment[L-carnitine] * Sex[F]","Creatine kinase (CK); serum, model term",−5.661 mU/mL
same,"Creatine Kinase, mixed model Estimate, term Treatment[L-carnitine]","Creatine kinase (CK); serum, model term",3.121 mU/mL
same,"Creatine Kinase, mixed model Estimate, term Treatment[L-carnitine] * Sex[F]","Creatine kinase (CK); serum, model term",5.935 mU/mL
same,Fractional Breakdown Rate (FBR) of muscle samples,"skeletal muscle; Ex.2 part two, 250 mg/d, adjusted for gender and exercise state",1.92%
same,FBR (% protein breakdown rate/day) of skeletal muscle,"skeletal muscle; Ex.2 part two, 250 mg/d, exercised females (15 mile endurance run)",3.26%
same,FBR of skeletal proteins,"skeletal muscle; Ex.2 part two, 250 mg/d, running males",1.26%
same,FBR,skeletal muscle; Female,3.26^a %
same,FBR,skeletal muscle; Male,1.26^a %
